Experimental data as given in PubChem BioAssay AID330 (DTP/NCI, 2004).
Values joined by “and” are separate entries in the source; they are usually repeats but may differ in a detail not shown here. Equal entries are not always repeated. Inconclusive results and toxic doses are left out. Rule for the calls: active = survival T/C of 150% or more; inactive = T/C below 125% in these data.

Test system: P388 leukemia ip, CD2F1 mice, survival T/C
Assay: NCI In Vivo Anticancer Drug Screen. Data for tumor model P388 Leukemia (intraperitoneal) in CD2F1 (CDF1) mice
Conditions: endpoint: median survival time, higher = longer survival
Method in brief: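 Mice carrying the transplanted tumor received test compound or vehicle. Survival was recorded in each group, and the value is the treated-group measurement divided by that of the vehicle-treated control group.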

[1] = dose: 60.0 mg/kg/injection, schedule: Q01DX005 (ip), vehicle: saline with Tween-80
[2] = dose: 120.0 mg/kg/injection, schedule: Q01DX005 (ip), vehicle: saline with Tween-80
[3] = dose: 240.0 mg/kg/injection, schedule: Q01DX005 (ip), vehicle: saline with Tween-80
[4] = dose: 50.0 mg/kg/injection, schedule: Q01DX005 (ip), vehicle: saline with Tween-80
[5] = dose: 100.0 mg/kg/injection, schedule: Q01DX005 (ip), vehicle: saline with Tween-80
[6] = dose: 200.0 mg/kg/injection, schedule: Q01DX005 (ip), vehicle: saline with Tween-80
[7] = dose: 50.0 mg/kg/injection, schedule: Q01DX009 (ip), vehicle: saline with Tween-80
[8] = dose: 100.0 mg/kg/injection, schedule: Q01DX009 (ip), vehicle: saline with Tween-80
[9] = dose: 200.0 mg/kg/injection, schedule: Q01DX009 (ip), vehicle: saline with Tween-80
[10] = dose: 50.0 mg/kg/injection, schedule: Q01DX009 (ip), vehicle: saline
[11] = dose: 100.0 mg/kg/injection, schedule: Q01DX009 (ip), vehicle: saline
[12] = dose: 200.0 mg/kg/injection, schedule: Q01DX009 (ip), vehicle: saline
[13] = dose: 25.0 mg/kg/injection, schedule: Q01DX005 (ip), vehicle: saline
[14] = dose: 12.5 mg/kg/injection, schedule: Q01DX009 (ip), vehicle: saline
[15] = dose: 25.0 mg/kg/injection, schedule: Q01DX009 (ip), vehicle: saline
[16] = dose: 25.0 mg/kg/injection, schedule: Q01DX009 (ip), vehicle: saline with Tween-80
[17] = dose: 25.0 mg/kg/injection, schedule: Q01DX005 (ip), vehicle: saline with Tween-80

Measured: T/C

O=C1CC2(C(=O)NN1)C1=C(c3ccccc3CC1)N1CCCC12 (stereo not given)
inactive: dose: 11.25 mg/kg/injection, schedule: Q01DX009 (ip), vehicle: Klucel (hydroxypropylcellulose) (HPC) 100 % of control | dose: 22.5 mg/kg/injection, schedule: Q01DX009 (ip), vehicle: Klucel (hydroxypropylcellulose) (HPC) 102 % of control | dose: 45.0 mg/kg/injection, schedule: Q01DX009 (ip), vehicle: Klucel (hydroxypropylcellulose) (HPC) 100 % of control | dose: 90.0 mg/kg/injection, schedule: Q01DX009 (ip), vehicle: Klucel (hydroxypropylcellulose) (HPC) 100 % of control

COC(=O)c1cc(OC)c2cccnc2c1Nc1ccccc1
inactive: [1] 102 % of control | [2] 102 % of control | [3] 100 % of control

COc1cc(C2c3cc4c(cc3CCN2C)OCO4)cc(OC)c1OC (stereo not given)
inactive: [4] 106 % of control | [5] 94 % of control

CCOC(=O)C(NC(=O)OC(C)(C)C)C(C)C (stereo not given)
inactive: [4] 98 % of control | [5] 100 % of control | [6] 100 % of control

CCN(CC)CCOC(=O)c1ccc(N=NC2Sc3nc4ccccc4n3C2=O)cc1 (stereo not given)
inactive: dose: 7.5 mg/kg/injection, schedule: Q01DX005 (ip), vehicle: Klucel (hydroxypropylcellulose) (HPC) 92 % of control | dose: 15.0 mg/kg/injection, schedule: Q01DX005 (ip), vehicle: Klucel (hydroxypropylcellulose) (HPC) 96 % of control | dose: 30.0 mg/kg/injection, schedule: Q01DX005 (ip), vehicle: Klucel (hydroxypropylcellulose) (HPC) 96 % of control

C/C(=N/NC(=O)c1ccccc1)c1ccccc1O
inactive: [7] 104 % of control | [8] 100 % of control | [9] 104 % of control | dose: 400.0 mg/kg/injection, schedule: Q01DX009 (ip), vehicle: saline with Tween-80 107 % of control

CCN1C(NN)=NS(=O)(=O)c2ccccc21
inactive: [1] 103 % of control | [2] 106 % of control | [3] 94 % of control

O=C1CC(c2ccccc2)=NO1
inactive: dose: 100.0 mg/kg/injection, schedule: Q04DX003 (ip), vehicle: Klucel (hydroxypropylcellulose) (HPC) 94 % of control | dose: 200.0 mg/kg/injection, schedule: Q04DX003 (ip), vehicle: Klucel (hydroxypropylcellulose) (HPC) 99 % of control | dose: 400.0 mg/kg/injection, schedule: Q04DX003 (ip), vehicle: Klucel (hydroxypropylcellulose) (HPC) 100 % of control

O=C(O)CSCCCCCCSCC(=O)O
inactive: [10] 103 % of control | [11] 103 % of control | [12] 103 % of control

CC(=O)c1c(OCC(O)CN2CCN(C)CC2)cccc1OCC(O)CN1CCN(C)CC1 (stereo not given)
inactive: dose: 6.25 mg/kg/injection, schedule: Q01DX005 (ip), vehicle: saline 105 % of control | dose: 12.5 mg/kg/injection, schedule: Q01DX005 (ip), vehicle: saline 101 % of control | [13] 105 % of control

C=C1C(=O)OC2/C=C(\C)CC/C=C(/C=O)CC(OC(=O)C(C)C)C12 (stereo not given)
inactive: dose: 5.0 mg/kg/injection, schedule: Q01DX009 (ip), vehicle: other 100 % of control | dose: 10.0 mg/kg/injection, schedule: Q01DX009 (ip), vehicle: other 91 % of control | dose: 20.0 mg/kg/injection, schedule: Q01DX009 (ip), vehicle: other 112 % of control

O=C1NC(=O)C2(O)NC(=O)NC2(O)N1 (stereo not given)
inactive: [13] 100 % of control | dose: 50.0 mg/kg/injection, schedule: Q01DX005 (ip), vehicle: saline 106 % of control | dose: 100.0 mg/kg/injection, schedule: Q01DX005 (ip), vehicle: saline 101 % of control | dose: 200.0 mg/kg/injection, schedule: Q01DX005 (ip), vehicle: saline 116 % of control | dose: 400.0 mg/kg/injection, schedule: Q01DX005 (ip), vehicle: saline 116 % of control

C/C(CCn1[nH]c(=O)ccc1=O)=N\NS(=O)(=O)c1ccc(C)cc1
inactive: [1] 103 % of control | [2] 109 % of control | dose: 134.0 mg/kg/injection, schedule: Q01DX005 (ip), vehicle: saline with Tween-80 105 % of control

CCCNC(=S)N/N=C(/C)CC/C(C)=N/NC(=S)NCCC
inactive: [14] 98 % of control | [15] 99 % of control | [10] 104 % of control and 86 % of control

Cc1[nH]c(C(=O)NN)c(C)c1C(=O)NN
inactive: [16] 91 % of control | [7] 95 % of control | [8] 91 % of control

CC1(C)NC(=O)[C@]2(C[C@@H](OC(=O)c3ccccc3)C=C2C=O)O1
inactive: [17] 109 % of control | [4] 96 % of control

O=C1N=NC2=C1c1c3ccccc3c(O)n1CC2
inactive: [17] 99 % of control | [4] 101 % of control | [5] 95 % of control

COc1cc(Br)c2nsnc2c1
inactive: [4] 91 % of control | [5] 91 % of control

Cc1cc(Nc2ccc(C(=O)N/N=C/c3ccc(N(CCCl)CCCl)cc3)cc2)nc2ccc(Cl)cc12
inactive: [10] 90 % of control | [11] 91 % of control | [12] 87 % of control

C[C@@]1(CO)[C@H](O)CC[C@@]2(C)[C@H]1CC[C@H]1C[C@@H]3C[C@@]12CC[C@@]3(O)COC(=O)CN
inactive: dose: 5.0 mg/kg/injection, schedule: Q03HX027 (ip), vehicle: saline + alcohol 113 % of control | dose: 10.0 mg/kg/injection, schedule: Q03HX027 (ip), vehicle: saline + alcohol 118 % of control | [14] 105 % of control and 107 % of control | dose: 15.0 mg/kg/injection, schedule: Q01DX009 (ip), vehicle: saline + alcohol 118 % of control | dose: 25.0 mg/kg/injection, schedule: Q01DX005 (iv), vehicle: saline 105 % of control | [15] 107 % of control and 122 % of control | dose: 30.0 mg/kg/injection, schedule: Q01DX009 (ip), vehicle: saline + alcohol 117 % of control | dose: 40.0 mg/kg/injection, schedule: Q03HX027 (ip), vehicle: saline + alcohol 106 % of control | dose: 50.0 mg/kg/injection, schedule: Q01DX005 (iv), vehicle: saline 99 % of control | [10] 114 % of control | dose: 100.0 mg/kg/injection, schedule: Q01DX005 (iv), vehicle: saline 101 % of control | [11] 122 % of control | dose: 120.0 mg/kg/injection, schedule: Q01DX009 (ip), vehicle: saline + alcohol 95 % of control | dose: 200.0 mg/kg/injection, schedule: Q01DX005 (iv), vehicle: saline 115 % of control

Cc1c2c(cc3c4ccccc4n(C)c13)C(=O)c1ccccc1C2=O
inactive: dose: 100.0 mg/kg/injection, schedule: Q04DX002 (ip), vehicle: saline with Tween-80 90 % of control | dose: 200.0 mg/kg/injection, schedule: Q04DX002 (ip), vehicle: saline with Tween-80 87 % of control | dose: 400.0 mg/kg/injection, schedule: Q04DX002 (ip), vehicle: saline with Tween-80 92 % of control

CC1=CC(OCc2ccccc2)OC1=O (stereo not given)
inactive: dose: 100.0 mg/kg/injection, schedule: Q04DX002 (ip), vehicle: Klucel (hydroxypropylcellulose) (HPC) 101 % of control | dose: 200.0 mg/kg/injection, schedule: Q04DX002 (ip), vehicle: Klucel (hydroxypropylcellulose) (HPC) 102 % of control | dose: 400.0 mg/kg/injection, schedule: Q04DX002 (ip), vehicle: Klucel (hydroxypropylcellulose) (HPC) 104 % of control

CCOC(=O)c1ccc(NC(CCNC2CCCCC2)=NC(C)(C)C)cc1
inactive: [7] 96 % of control | [8] 97 % of control | [9] 96 % of control

COC(/C=N/OC(=O)c1ccc([N+](=O)[O-])cc1)c1ccccc1 (stereo not given)
inactive: dose: 25.0 mg/kg/injection, schedule: Q04DX003 (ip), vehicle: saline with Tween-80 89 % of control and 92 % of control | dose: 50.0 mg/kg/injection, schedule: Q04DX003 (ip), vehicle: saline with Tween-80 92 % of control and 94 % of control

Cc1ccc(C2(C)OC(CCl)CS2)c(C)c1 (stereo not given)
inactive: [16] 101 % of control and 98 % of control | [7] 104 % of control and 98 % of control | [8] 105 % of control | [9] 107 % of control and 119 % of control

CC1=CO/C(=C\[Si](C)(C)C)OC1c1ccccc1 (stereo not given)
inactive: dose: 100.0 mg/kg/injection, schedule: Q01DX001 (ip), vehicle: saline with Tween-80 104 % of control | dose: 200.0 mg/kg/injection, schedule: Q01DX001 (ip), vehicle: saline with Tween-80 108 % of control | dose: 400.0 mg/kg/injection, schedule: Q01DX001 (ip), vehicle: saline with Tween-80 103 % of control

Brc1ccc(-n2c(-c3ccccc3)cs/c2=N\Nc2nnc(-c3ccccc3)c(-c3ccccc3)n2)cc1
inactive: [4] 101 % of control | [5] 87 % of control | [6] 92 % of control

CC1C=CC(c2ccccc2)C2C(=O)OC(=O)C12 (stereo not given)
inactive: [1] 116 % of control | [2] 114 % of control
